Data: ChEMBL document CHEMBL1130861, “Synthesis and proteinase inhibitory properties of diphenyl phosphonate analogues of aspartic and glutamic acids” (1998)

Key:
Staphylococcus aureus = test: Apparent second-order rate constant was determined by the inactivation of Staphylococcus aureus V8 proteinase with the compound at the concentration 100 mM(pH 7.4); ki/Ki(1/M*s); format: functional
[1] = target: Granzyme B (Homo sapiens) (UniProt P10144); test: Apparent second-order rate constant was determined by the inhibition of Granzyme B with the compound at the concentration 150 mM; ki/Ki(1/M*s), Not inhibited
Sequence of Granzyme B (Homo sapiens) (P10144 whole entry): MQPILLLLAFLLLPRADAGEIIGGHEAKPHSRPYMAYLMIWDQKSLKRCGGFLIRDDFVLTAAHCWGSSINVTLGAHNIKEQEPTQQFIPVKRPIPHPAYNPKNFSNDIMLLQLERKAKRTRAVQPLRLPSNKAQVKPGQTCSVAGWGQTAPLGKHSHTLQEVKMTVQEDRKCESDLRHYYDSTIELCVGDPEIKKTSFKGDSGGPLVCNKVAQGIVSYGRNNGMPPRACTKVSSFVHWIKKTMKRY

Row | SMILES | Activity (Staphylococcus aureus) | Activity [1]
1 | CC(=O)N[C@H](CC(=O)O)P(=O)(Oc1ccccc1)Oc1ccccc1 | 5 | No inhibition
2 | CC(=O)N[C@H](CCC(=O)O)P(=O)(Oc1ccccc1)Oc1ccccc1 | 5.3 | No inhibition
